Consider 2 compounds from ChEMBL document CHEMBL4043159, “Structural evidence for the DPPH radical-scavenging mechanism of 2-O-α-d-glucopyranosyl-l-ascorbic acid” (Bioorg Med Chem, 2017).

Common to all, as to type: functional
A short description of assay [1]: Antioxidant activity assessed as DPPH free radical scavenging activity by measuring radical-scavenging activity factor (moles of radicals scavenged by each mol of antioxidant) at 20 uM measured at 30 mins by HPLC.
The nature of assay [2]: Antioxidant activity assessed as time duration for DPPH free radical scavenging activity at 20 uM by HPLC. (In general: The DPPH test is a chemical assay of radical scavenging.)
A short description of assay [3]: Antioxidant activity assessed as DPPH free radical scavenging activity by measuring radical-scavenging activity factor (moles of radicals scavenged by each mol of antioxidant) at 20 uM measured at 120 mins by HPLC.
The nature of assay [4]: Antioxidant activity assessed as DPPH free radical scavenging activity by measuring AA-2G-DPPH adducts level at 200 uM measured at 10 mins by HPLC.
Assay [5] is described as follows: Antioxidant activity assessed as DPPH free radical scavenging activity by measuring AA-2G-DPPH product formation at 0.25 to 0.75 mM incubated for 30 mins by HPLC method.
Assay [6] can be described thus: Antioxidant activity assessed as DPPH free radical scavenging activity by measuring amount of compound consumed at 200 uM measured at 10 mins by HPLC.
The nature of assay [7]: Antioxidant activity assessed as DPPH free radical scavenging activity by measuring AA-2G-DPPH adducts formation at 200 uM measured within 10 mins by HPLC.
Assay [8] can be described thus: Antioxidant activity assessed as DPPH free radical scavenging activity by measuring radical-scavenging activity factor (moles of radicals scavenged by each mol of antioxidant) at 20 uM measured at 10 mins by HPLC.
The nature of assay [9]: Antioxidant activity assessed as DPPH free radical scavenging activity by measuring radical-scavenging activity factor (moles of radicals scavenged by each mol of antioxidant) at 20 uM measured at 15 mins by HPLC.
Assay [10] can be described thus: Antioxidant activity assessed as DPPH free radical scavenging activity by measuring retention time of AA-2G-DPPH product at 20 uM incubated for 30 mins by HPLC method.
A short description of assay [11]: Antioxidant activity assessed as DPPH free radical scavenging activity by measuring AA-2G-DPPH adducts formation at 5 mM incubated for 10 to 30 mins by 1H NMR spectroscopy.

Activity calls are given as the source filed them. The rule behind the calls is not given here.

For `O=C1O[C@H]([C@@H](O)CO)C(O)=C1O[C@H]1O[C@H](CO)[C@@H](O)[C@H](O)[C@H]1O`, the scavenging factor stood at 2.1 mol/mol in assay [1], 2.7 mol/mol in assay [3], 1.5 mol/mol in [8] and 1.7 mol/mol in [9]. Also, in assay [2], the TIME was 2 h. In addition, the Activity in assay [4] is 190 µM; in [5] it was “Dose-dependent effect”; in [6], 190 µM. For the same compound, the result in assay [7] and in assay [11] was Active. The Retention time in assay [10] was found to be 15 min.

For `O=C1O[C@H]([C@@H](O)CO)C(O)=C1O`, the scavenging factor in assay [1] is 1.9 mol/mol; in assay [3], 1.9 mol/mol; in assay [8] it was 1.8 mol/mol; in [9] it was 1.8 mol/mol. The TIME in assay [2] was less than 0.0167 h. The result in [10] was inactive.
